# Source: paper PMC4552634, “A New Set of Chemical Starting Points with Plasmodium falciparum Transmission-Blocking Potential for Antimalarial Drug Discovery” (PLoS ONE, 2015)
# Where two headings read alike, the source gives them in different places.
# System: P. falciparum stage V gametocytes
# Assay: microbe, parasite or virus in culture
# Set-up: BacTiter-Glo ATP luminescence viability of purified stage V gametocytes in 384-well plates, per cent inhibition versus DMSO
# [1] = Plasmodium falciparum, 48 h, read-out: % Inhibition
# [2] = Plasmodium falciparum, 48 h; read-out: % Inhibition
Compound,inhibition at 5 µM [1],other results
COc1ccc2c(NN=Cc3cccc(Cl)c3)ccnc2c1 [TCMDC-142128],98.7%,–
CCCCc1ccc2[nH]cc(C(=O)OCC)c(=O)c2c1 [TCMDC-142243],33.5%,–
CCn1c2ccccc2c2cc(C=NNc3cc(C)nc4ccccc34)ccc21 [TCMDC-142186],85.3%,–
COc1ccc(C=NNc2cc(C)nc3ccc(C)cc23)c2ccccc12 [TCMDC-142217],103%,–
Cc1cc(NN=Cc2ccc(Cl)cc2)c2cc(F)ccc2n1 [TCMDC-142163],56.5%,–
CCN(CC)CC(O)c1cc(-c2ccc(OC)cc2)nc2cc(Cl)ccc12 (centres unmarked) [TCMDC-142222],-13%,–
COc1ccc2nccc(NN=Cc3ccc(Cl)cc3)c2c1 [TCMDC-142124],58.2%,–
COc1ccc2ccccc2c1C=NNc1cc(C)nc2c(C)cccc12 [TCMDC-142234],35.2%,–
CC(C)NCC(O)COc1ccc(Cc2ccc(OCC(O)CNC(C)C)cc2)cc1 (centres unmarked) [TCMDC-142221],77%,–
CN(C)CCN1CCN(CCCN2c3ccccc3Sc3ccc(C(F)(F)F)cc32)CC1 [TCMDC-142257],–,"% Inhibition (48 h, 5 µM; inhibitor): 92.65%"
CCCCCCC(CC)c1cc(O)c2c(c1)OC(C)(C)c1ccncc1-2 (centres unmarked) [TCMDC-142258],–,inhibition at 5 µM [2]: -39.1%
Cc1cc(N/N=C/c2ccccc2[N+](=O)[O-])c2ccc(F)cc2n1 [TCMDC-142168],-45.1%,–
Cc1cc(NN=Cc2cccc(Cl)c2)c2ccc(F)cc2n1 [TCMDC-142161],-34%,–
CC(C)(C)c1cc(Cl)cc(C(=O)Nc2cc([N+](=O)[O-])ccc2Cl)c1O [TCMDC-142214],36.2%,–
COc1ccc2c(NN=Cc3ccc(Cl)cc3)ccnc2c1 [TCMDC-142105],-15.3%,–
CCOC(=O)c1cnc2c(OC)cc(OC)c(Cl)c2c1Nc1ccccc1 [TCMDC-142240],44.8%,–

Compound,inhibition at 5 µM [1],other results
CC(C)c1cc(Oc2c(I)cc(CCNCc3ccccc3)cc2I)ccc1O [TCMDC-142300],-73.5%,–
COc1ccc2nccc(NN=Cc3cccc([N+](=O)[O-])c3)c2c1 [TCMDC-142137],53.9%,–
Cc1cc(NN=Cc2ccccc2Cl)c2cc(F)ccc2n1 [TCMDC-142165],-39.2%,–
COc1ccc(OC)c2c1CC1NCC2c2c(OC)ccc(OC)c21 (centres unmarked) [TCMDC-142224],2.64%,–
CCCCCCCc1cc(O)c2c(c1)OC(C)(C)c1ccncc1-2 [TCMDC-142259],–,inhibition at 5 µM [2]: 6.2%
COc1ccc2c(NN=Cc3ccc(F)cc3)ccnc2c1 [TCMDC-142135],5.77%,–
Nc1c2c(nc3ccc(C(=O)Nc4ccccc4)cc13)CCCC2 [TCMDC-142284],39.7%,–
COc1ccccc1CNc1nc(Nc2ccccc2C)nc2ccccc12 [TCMDC-142330],93.6%,–
COc1ccc2nccc(NN=Cc3cccc(Cl)c3)c2c1 [TCMDC-142125],11.8%,–
CC1(C)N=C(N)N=C(N)N1c1ccc(Cl)c(Cl)c1 [TCMDC-142180],61.6%,–
FC(F)(F)c1ccc2nccc(NN=Cc3ccc(Cl)cc3)c2c1 [TCMDC-142103],1.69%,–
COc1ccc2c(NN=Cc3c(OC)ccc4ccccc34)cc(C)nc2c1 [TCMDC-142236],103%,–
Nc1cc(-c2ccc3ccccc3c2)nc2ccccc12 [TCMDC-142281],1.22%,–
COc1ccc(C=NNc2cc(C)nc3ccccc23)cc1OC [TCMDC-142184],-5.19%,–
COc1ccc2nccc(NN=Cc3ccccc3[N+](=O)[O-])c2c1 [TCMDC-142136],27.9%,–
COc1ccc2nccc(NN=Cc3ccccc3F)c2c1 [TCMDC-142130],6.1%,–
